Assay results from the NIST ThermoML archive (doi:10.1021/je7000039).
± gives the expanded uncertainty stated by the source.

details: Crystal; DTA

Row | Normal melting temperature | Structure (SMILES)
1 | 139.66 ± 0.5 °C | C[C@H]1[C@H](OC(=O)CCC(=O)O)O[C@@H]2O[C@@]3(C)CC[C@H]4[C@H](C)CC[C@@H]1[C@@]24OO3 [artesunate]
2 | 83.98 ± 0.5 °C | CO[C@H]1O[C@@H]2O[C@@]3(C)CC[C@H]4[C@H](C)CC[C@@H]([C@H]1C)[C@@]24OO3 [beta-artemether]

Row | Structure (SMILES) | Normal melting temperature
3 | C[C@@H]1CC[C@H]2[C@@H](C)C(=O)O[C@@H]3O[C@@]4(C)CC[C@@H]1[C@]32OO4 [artemisinin] | 148.28 ± 0.5 °C
